Source: the supplement of paper PMC10307832

Experiments:
Experiment in all cases: relative viability (nuclei count vs DMSO), 5 days (fraction); higher = more cells survive
ABC-1 = system: ABC-1
How it was run: (§1)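 Lung cancer cell lines were pin-tool dosed in 1536-well plates on the day after seeding, with either a lone drug or a fixed anchor-drug dose plus five library-drug doses (not always all listed) in √10 steps. Nuclei were counted on 4× images after 5 days. Relative viability is the ratio of treated-well to vehicle-well nuclei counts, with each value a median of duplicate plates.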

BEN = system: BEN
How it was run: as §1

EPLC-272H = system: EPLC-272H
How it was run: as §1

HCC-827 = system: HCC-827
How it was run: as §1

HOP-62 = system: HOP-62
How it was run: as §1

LU99A = system: LU99A
How it was run: as §1

NCI-H1355 = system: NCI-H1355
How it was run: as §1

NCI-H1666 = system: NCI-H1666
How it was run: as §1

NCI-H1792 = system: NCI-H1792
How it was run: as §1

NCI-H1975 = system: NCI-H1975
How it was run: as §1

NCI-H2170 = system: NCI-H2170
How it was run: as §1

NCI-H23 = system: NCI-H23
How it was run: as §1

NCI-H2405 = system: NCI-H2405
How it was run: as §1

NCI-H3122 = system: NCI-H3122
How it was run: as §1

NCI-H322M = system: NCI-H322M
How it was run: as §1

NCI-H358 = system: NCI-H358
How it was run: as §1

NCI-H520 = system: NCI-H520
How it was run: as §1

NCI-H596 = system: NCI-H596
How it was run: as §1

NCI-H647 = system: NCI-H647
How it was run: as §1

NCI-H727 = system: NCI-H727
How it was run: as §1

NCI-H838 = system: NCI-H838
How it was run: as §1

PC-14 = system: PC-14
How it was run: as §1

UMC-11 = system: UMC-11
How it was run: as §1

O=c1[nH]c2ccccc2n1C1CCN(CCCC(c2ccc(F)cc2)c2ccc(F)cc2)CC1 [Pimozide] + COc1cccc2cc(-c3nc([C@H]4CC[C@H](C(=O)O)CC4)n4ncnc(N)c34)[nH]c12 [OSI-027] (partner 0.5 µM)
relative viability (ABC-1; first compound 0.08 µM): 0.514 | relative viability (ABC-1; first compound 0.253 µM): 0.496 | relative viability (ABC-1; first compound 0.8 µM): 0.422 | relative viability (ABC-1; first compound 2.53 µM): 0.351 | relative viability (ABC-1; first compound 8 µM): 0.354 | relative viability (BEN; first compound 0.08 µM): 0.275 | relative viability (BEN; first compound 0.253 µM): 0.293 | relative viability (BEN; first compound 0.8 µM): 0.307 | relative viability (BEN; first compound 2.53 µM): 0.321 | relative viability (BEN; first compound 8 µM): 0.304 | relative viability (EPLC-272H; first compound 0.08 µM): 0.276 | relative viability (EPLC-272H; first compound 0.253 µM): 0.302 | relative viability (EPLC-272H; first compound 0.8 µM): 0.25 | relative viability (EPLC-272H; first compound 2.53 µM): 0.176 | relative viability (EPLC-272H; first compound 8 µM): 0.234 | relative viability (HCC-827; first compound 0.253 µM): 0.801 | relative viability (HCC-827; first compound 0.8 µM): 0.738 | relative viability (HCC-827; first compound 2.53 µM): 0.782 | relative viability (HCC-827; first compound 8 µM): 0.769 | relative viability (HOP-62; first compound 0.08 µM): 0.859 | relative viability (HOP-62; first compound 0.253 µM): 0.806 | relative viability (HOP-62; first compound 2.53 µM): 0.759 | relative viability (HOP-62; first compound 8 µM): 0.773 | relative viability (LU99A; first compound 0.08 µM): 0.277 | relative viability (LU99A; first compound 0.253 µM): 0.277 | relative viability (LU99A; first compound 0.8 µM): 0.228 | relative viability (LU99A; first compound 2.53 µM): 0.302 | relative viability (LU99A; first compound 8 µM): 0.291 | relative viability (NCI-H1355; first compound 0.08 µM): 0.326 | relative viability (NCI-H1355; first compound 0.253 µM): 0.398 | relative viability (NCI-H1355; first compound 0.8 µM): 0.305 | relative viability (NCI-H1355; first compound 2.53 µM): 0.357 | relative viability (NCI-H1355; first compound 8 µM): 0.34 | relative viability (NCI-H1666; first compound 0.08 µM): 0.874 | relative viability (NCI-H1666; first compound 0.253 µM): 0.832 | relative viability (NCI-H1666; first compound 0.8 µM): 0.772 | relative viability (NCI-H1666; first compound 2.53 µM): 0.699 | relative viability (NCI-H1666; first compound 8 µM): 0.808 | relative viability (NCI-H1792; first compound 0.08 µM): 0.758 | relative viability (NCI-H1792; first compound 0.253 µM): 0.691 | relative viability (NCI-H1792; first compound 0.8 µM): 0.666 | relative viability (NCI-H1792; first compound 2.53 µM): 0.663 | relative viability (NCI-H1792; first compound 8 µM): 0.736 | relative viability (NCI-H1975; first compound 0.08 µM): 0.838 | relative viability (NCI-H1975; first compound 0.253 µM): 0.695 | relative viability (NCI-H1975; first compound 0.8 µM): 0.753 | relative viability (NCI-H1975; first compound 2.53 µM): 0.651 | relative viability (NCI-H1975; first compound 8 µM): 0.561 | relative viability (NCI-H2170; first compound 0.08 µM): 0.617 | relative viability (NCI-H2170; first compound 0.253 µM): 0.628 | relative viability (NCI-H2170; first compound 0.8 µM): 0.681 | relative viability (NCI-H2170; first compound 2.53 µM): 0.692 | relative viability (NCI-H2170; first compound 8 µM): 0.551 | relative viability (NCI-H23; first compound 0.08 µM): 0.696 | relative viability (NCI-H23; first compound 0.253 µM): 0.603 | relative viability (NCI-H23; first compound 0.8 µM): 0.379 | relative viability (NCI-H23; first compound 2.53 µM): 0.443 | relative viability (NCI-H23; first compound 8 µM): 0.477 | relative viability (NCI-H2405; first compound 0.08 µM): 0.654 | relative viability (NCI-H2405; first compound 0.253 µM): 0.576 | relative viability (NCI-H2405; first compound 0.8 µM): 0.689 | relative viability (NCI-H2405; first compound 2.53 µM): 0.665 | relative viability (NCI-H2405; first compound 8 µM): 0.707 | relative viability (NCI-H3122; first compound 0.08 µM): 1.01 | relative viability (NCI-H3122; first compound 0.253 µM): 0.873 | relative viability (NCI-H3122; first compound 0.8 µM): 0.826 | relative viability (NCI-H3122; first compound 2.53 µM): 0.926 | relative viability (NCI-H3122; first compound 8 µM): 0.822 | relative viability (NCI-H322M; first compound 0.253 µM): 0.525 | relative viability (NCI-H322M; first compound 0.8 µM): 0.508 | relative viability (NCI-H322M; first compound 2.53 µM): 0.545 | relative viability (NCI-H322M; first compound 8 µM): 0.572 | relative viability (NCI-H358; first compound 0.08 µM): 0.829 | relative viability (NCI-H358; first compound 0.253 µM): 0.74 | relative viability (NCI-H358; first compound 0.8 µM): 0.697 | relative viability (NCI-H358; first compound 2.53 µM): 0.646 | relative viability (NCI-H358; first compound 8 µM): 0.678 | relative viability (NCI-H520; first compound 0.08 µM): 0.24 | relative viability (NCI-H520; first compound 0.253 µM): 0.255 | relative viability (NCI-H520; first compound 0.8 µM): 0.235 | relative viability (NCI-H520; first compound 2.53 µM): 0.212 | relative viability (NCI-H520; first compound 8 µM): 0.227 | relative viability (NCI-H596; first compound 0.08 µM): 0.627 | relative viability (NCI-H596; first compound 0.253 µM): 0.851 | relative viability (NCI-H596; first compound 0.8 µM): 0.642 | relative viability (NCI-H596; first compound 2.53 µM): 0.627 | relative viability (NCI-H596; first compound 8 µM): 0.481 | relative viability (NCI-H647; first compound 0.08 µM): 0.656 | relative viability (NCI-H647; first compound 0.253 µM): 0.71 | relative viability (NCI-H647; first compound 0.8 µM): 0.677 | relative viability (NCI-H647; first compound 2.53 µM): 0.611 | relative viability (NCI-H647; first compound 8 µM): 0.404 | relative viability (NCI-H727; first compound 0.08 µM): 0.717 | relative viability (NCI-H727; first compound 0.253 µM): 0.55 | relative viability (NCI-H727; first compound 0.8 µM): 0.512 | relative viability (NCI-H727; first compound 2.53 µM): 0.652 | relative viability (NCI-H727; first compound 8 µM): 0.54 | relative viability (NCI-H838; first compound 0.08 µM): 0.409 | relative viability (NCI-H838; first compound 0.253 µM): 0.388 | relative viability (NCI-H838; first compound 0.8 µM): 0.33 | relative viability (NCI-H838; first compound 2.53 µM): 0.4 | relative viability (NCI-H838; first compound 8 µM): 0.353 | relative viability (PC-14; first compound 0.08 µM): 0.182 | relative viability (PC-14; first compound 0.253 µM): 0.743 | relative viability (PC-14; first compound 0.8 µM): 0.764 | relative viability (PC-14; first compound 2.53 µM): 0.624 | relative viability (PC-14; first compound 8 µM): 0.621 | relative viability (UMC-11; first compound 0.08 µM): 0.515 | relative viability (UMC-11; first compound 0.253 µM): 0.421 | relative viability (UMC-11; first compound 0.8 µM): 0.51 | relative viability (UMC-11; first compound 2.53 µM): 0.357 | relative viability (UMC-11; first compound 8 µM): 0.312
